Experiments:
[1] = tested on: laser-induced choroidal neovascularization model of a cynomolgus monkey; assay: Test Example 8: laser-induced choroidal neovascularization model of cynomolgus monkey, incidence of grade 4 by fluorescein fundus angiography; type: in vivo; details: n = 6
Protocol: Twenty-one days before the start of drug administration, both the eyes of each animal (all cases) were irradiated with laser to prepare animal models. Drops of a mydriatic agent were placed in the animal eyes to be irradiated. After confirmation of mydriasis, a mixed solution of ketamine hydrochloride (50 mg/mL) and an aqueous xylazine solution (20 mg/mL) [7:1 (v/v)] was intramuscularly administered (0.2 mL/kg or 10 mg/kg) to each animal. An appropriate amount of a special aid for contact lens placement to the cornea (Scopisol Solution for Eye) was added dropwise to an eyepiece of a retinal laser lens. The retinal laser lens was pressure-bonded to the eyes to be irradiated, and a yellow spot was confirmed. After the confirmation of a yellow spot, 8 sites around the yellow spot excluding the central pit were irradiated with green laser (wavelength: 532 nm, irradiation spot size: 80 μm, irradiation time: 0.1 sec, output: 1000 mW) using a multicolor laser photocoagulator (MC-500, Nidek Co., Ltd.).
According to the test configuration shown in Table 46, a vehicle, the nanoparticle composition of the present invention prepared according to Example 1, and the solution composition obtained in Comparative Example 2 were administered four times a day by ocular instillation for 35 days to the animal. Aflibercept (EYLEA(Registered Trademark) solution for intravitreal injection, Bayer Corp.) was intravitreally injected (once) to the animal.
Ophthalmoscopic examination was carried out during the acclimatization period (day −1) and during the administration period (administration days 7, 14, 21, 28 and 34). Macroscopic examination and light reflex examination were carried out using a portable slit lamp (SL-15, Kowa Co., Ltd.). Drops of a mydriatic agent were placed in the animal eyes. After confirmation of mydriasis, ketamine hydrochloride (50 mg/mL) was intramuscularly administered (0.2 mL/kg or 10 mg/kg) to each animal. The anterior segment of the eye and the ocular media were examined using a portable slit lamp, while the eyegrounds were examined using a head-type binocular indirect ophthalmoscope (IO-aSmall Pupil, Neitz Instruments Co., Ltd.). The eyegrounds were photographed using a fundus camera (VX-10a, Kowa Co., Ltd.) in all cases.
Fluorescein fundus angiography was carried out during the acclimatization period (day −1) and during the administration period (administration days 7, 14, 21, 28 and 34). For examination, a contrast medium (Fluorescite Intravenous Injection 500 mg, Alcon Japan Ltd.) was administered (0.1 mL/kg or 0.1 mL/s) from the cephalic vein of the forearm under mydriasis and anesthesia of the macroscopic examination and the ophthalmoscopic examination. Approximately 1, 3, and 5 minutes after the contrast medium administration, photographs were taken using a fundus camera. Choroidal neovascular grading was carried out on an irradiation spot basis. The fluorescein fundus angiographic images were observed and graded on an irradiation spot basis according to the criteria of Table 47.
The incidences of grades 1 to 4 of each eye at each point in time of examination were each calculated according to the following expression: Incidence of grade (%)=The number of irradiation spots/8×100

[2] = tested on: laser-induced choroidal neovascularization model of a rat; assay: Test Example 7: anti-angiogenic effect on laser-induced choroidal neovascularization model of rat; type: in vivo, Brown Norway rat; details: 14 days after laser irradiation, ocular instillation twice a day 5 μL/eye (aflibercept: intravitreal 5 μL/eye once), n=12 or 13, * p<0.05 vs vehicle
Protocol: The mydriasis of the eyeballs of each male Brown Norway rat (n=12 or 13 for each group) was caused with mydriatic eye drops for examination. A ketamine hydrochloride/xylazine hydrochloride (7:1, v/v) mixed solution was intramuscularly administered (1 mL/kg) to the femur for general anesthesia. Then, the right eyeground was observed using a slit lamp, and 8 sites in the retina were irradiated with laser (wavelength: 532 nm, spot size: 80 μm, irradiation time: 0.05 sec, output: 120 mW) using a multicolor laser photocoagulator to prepare laser-induced choroidal neovascularization model animals.
A vehicle of Example 1 or the nanoparticle composition of the present invention obtained in each of Examples 1 and 2 was administered twice a day by ocular instillation (5 μL/eye, 6 hr:18 hr interval) to each model animal from immediately after the laser irradiation to 14 days after the laser irradiation. […]
A choroidal neovascular site was photographed using a confocal microscope (Nikon ECLIPSE TE 2000-U). For choroidal neovascular evaluation, an area (unit: pixel) that contained a newly formed blood vessel and was at the inner side relative to the highest raised portion was calculated using ImageJ (National Institutes of Health). […]

Aflibercept [Aflibercept (EYLEA)] was tested, and the “Incidence of grade 4” value ([1]; administration day 7, mean) was 4.2%, the “Incidence of grade 4” value ([1]; administration day 14, mean) was 4.2% and the “Incidence of grade 4” value ([1]; administration day 21, mean) was 4.2%. For the same substance, the “Incidence of grade 4” value ([1]; administration day 28, mean) was 4.2%, the “Incidence of grade 4” value ([1]; administration day 34, mean) was 4.2% and the “Incidence of grade 4” value ([1]; day −1 (acclimatization period, before administration), mean) was 43.8%. The “choroidal neovascularization area, mean” value [2] was 102931.7* pixel.

Reference: US10894043B2, “Pharmaceutical composition” (Kyowa Kirin Co., Ltd., priority 2016, dated 2021)
